# In publication PMC8505367 (Clinical Pharmacokinetics, 2021):
# Tests used:
# [1] = type: in vivo, human; settings: subjects with T2D, N = 55, oral, recommended dosing conditions; geometric mean of typical PK parameter values for each subject
# plasma protein = settings: cited from earlier work
# [2] = type: in vivo, human; settings: oral, post-dose fasting time 120 min, model-derived
# [3] = reducing gastric pH with omeprazole; cited from earlier work
smiles,measurement,setting,value
CC[C@H](C)[C@H](NC(=O)[C@H](Cc1ccccc1)NC(=O)[C@H](CCC(=O)O)NC(=O)[C@H](CCCCNC(=O)COCCOCCNC(=O)COCCOCCNC(=O)CC[C@H](NC(=O)CCCCCCCCCCCCCCCCC(=O)O)C(=O)O)NC(=O)[C@H](C)NC(=O)[C@H](C)NC(=O)[C@H](CCC(N)=O)NC(=O)CNC(=O)[C@H](CCC(=O)O)NC(=O)[C@H](CC(C)C)NC(=O)[C@H](Cc1ccc(O)cc1)NC(=O)[C@H](CO)NC(=O)[C@H](CO)NC(=O)[C@@H](NC(=O)[C@H](CC(=O)O)NC(=O)[C@H](CO)NC(=O)[C@@H](NC(=O)[C@H](Cc1ccccc1)NC(=O)[C@@H](NC(=O)CNC(=O)[C@H](CCC(=O)O)NC(=O)C(C)(C)NC(=O)[C@@H](N)Cc1cnc[nH]1)[C@@H](C)O)[C@@H](C)O)C(C)C)C(=O)N[C@@H](C)C(=O)N[C@@H](Cc1c[nH]c2ccccc12)C(=O)N[C@@H](CC(C)C)C(=O)N[C@H](C(=O)N[C@@H](CCCNC(=N)N)C(=O)NCC(=O)N[C@@H](CCCNC(=N)N)C(=O)NCC(=O)O)C(C)C [semaglutide],ka (absorption rate),[1],2.09 h⁻¹
same,Plasma protein binding,plasma protein,> 99%
same,"Bioavailability, plateau with longer post-dose fasting time",[2],around 1.4%
same,Change in semaglutide exposure,[3],small but not clinically relevant increase
